What was measured:
DENV-2 16681 strain = test: DENV-2 antiviral assay (eGFP fluorescence, Vero cells); type: cell-based, Dengue virus; conditions: DENV-2 16681 eGFP, MOI 0.5, 3 days
Method: The antiviral activity of all the compounds of the invention was tested against the DENV-2 16681 strain which was labeled with enhanced green fluorescent protein (eGPF). The culture medium consists of minimal essential medium supplemented with 2% of heat-inactivated fetal calf serum, 0.04% gentamycin (50 mg/mL) and 2 mM of L-glutamine. Vero cells, obtained from ECACC, were suspended in culture medium and 25 μL was added to 384-well plates (2500 cells/well), which already contain the antiviral compounds. Typically, these plates contain a 5-fold serial dilution of 9 dilution steps of the test compound at 200 times the final concentration in 100% DMSO (200 nL). […] Finally, each plate contains wells which are assigned as virus controls (containing cells and virus in the absence of compound), cell controls (containing cells in the absence of virus and compound) and medium controls (containing medium in the absence of cells, virus and compounds). To the wells assigned as medium control, 25 μL of culture medium was added instead of Vero cells. Once the cells were added to the plates, the plates were incubated for 30 minutes at room temperature to allow the cells to distribute evenly within the wells. Next, the plates were incubated in a fully humidified incubator (37° C., 5% CO2) until the next day. Then, DENV-2 strain 16681, labeled with eGFP, was added at a multiplicity of infection (MOI) of 0.5. Therefore, 15 μL of virus suspension was added to all the wells containing test compound and to the wells assigned as virus control. In parallel, 15 μL of culture medium was added to the medium and cell controls. Next, the plates were incubated for 3 days in a fully humidified incubator (37° C., 5% CO2). At the day of the read out, the eGFP fluorescence was measured using an automated fluorescence microscope at 488 nm (blue laser). Using an in-house LIMS system, inhibition dose response curves for each compound were calculated and the half maximal effective concentration (EC50) was determined. Therefore, the percent inhibition (I) for every test concentration is calculated using the following formula: I=100*(ST-SCC)/(SVC-SCC), ST, SCC and SVC are the amount of eGFP signal in the test compound, cell control and virus control wells, respectively. The EC50 represents the concentration of a compound at which the virus replication is inhibited with 50%, as measured by a 50% reduction of the eGFP fluorescent intensity compared to the virus control. The EC50 is calculated using linear interpolation (Table 1).

in vitro = conditions: African green monkey
Vero cells = conditions: African green monkey
[1] = Dengue virus, DENV2, Vero, 72 h

Structure (SMILES)	EC50 (DENV-2 16681 strain)	CC50 (in vitro)	EC50 (DENV-2 16681 strain; [1])	CC50 (Vero cells)
COc1cc(NC(C(=O)N2CCc3cc(F)c(C(F)(F)F)cc32)c2ccc(Cl)cc2OCCO)cc(-n2cncn2)c1 (single isomer, unassigned) [Compound 7A]	430 nM	11000 nM	–	–
COc1cc(NC(C(=O)N2CCc3cc(OC)c(C(F)(F)F)cc32)c2ccc(F)cc2OCCO)cc(-n2cncn2)c1 (single isomer, unassigned) [Compound 2A]	270 nM	12000 nM	–	–
COc1cc(NC(C(=O)N2CCc3ccc(C(F)(F)F)cc32)c2ccc(F)cc2OCCO)cc(-n2cncn2)c1 (racemic) [Compound 1, 2-(4-fluoro-2-(2-hydroxyethoxy)phenyl)-2-((3-methoxy-5-(1H-1,2,4-triazol-1-yl)phenyl)amino)-1-(6-(trifluoromethyl)indolin-1-yl)ethanone]	–	12000 nM	3.1 nM	–
COc1cc(NC(C(=O)N2CCc3ccc(C(F)(F)F)cc32)c2ccc(Cl)cc2OCCO)cc(-n2cncn2)c1 (single isomer, unassigned) [Compound 4A]	1200 nM	7800 nM	–	–
COc1cc(NC(C(=O)N2CCc3c(C)cc(OC(F)(F)F)cc32)c2ccc(Cl)cc2OCCCC(=O)O)cc(-n2cncn2)c1 (single isomer, unassigned) [Compound 16A]	14 nM	11000 nM	–	–
COc1cc(NC(C(=O)N2CCc3ccc(OC(F)(F)F)cc32)c2ccc(Cl)cc2OCCCC(=O)O)cc(-n2cncn2)c1 (single isomer, unassigned) [Compound 13B]	12 nM	–	–	12000 nM
COc1cc(NC(C(=O)N2CCc3cc(OC)c(C(F)(F)F)cc32)c2ccc(Cl)cc2OCCCC(=O)O)cc(-n2cncn2)c1 (racemic) [Compound 12, 4-(5-chloro-2-(1-((3-methoxy-5-(1H-1,2,4-triazol-1-yl)phenyl)amino)-2-(5-methoxy-6-(trifluoromethyl)indolin-1-yl)-2-oxoethyl)phenoxy)butanoic acid]	–	13000 nM	2.2 nM	–
COc1cc(NC(C(=O)N2CCc3ccc(OC(F)(F)F)cc32)c2ccc(Cl)cc2OCCO)cc(-n2cncn2)c1 (racemic) [Compound 6, 2-(4-chloro-2-(2-hydroxyethoxy)phenyl)-2-((3-methoxy-5-(1H-1,2,4-triazol-1-yl)phenyl)amino)-1-(6-(trifluoromethoxy)indolin-1-yl)ethanone]	–	3300 nM	0.97 nM	–
COc1cc(NC(C(=O)N2CCc3ccc(OC(F)(F)F)cc32)c2ccc(Cl)cc2OCCC(C)(C)C(=O)O)cc(-n2cncn2)c1 (single isomer, unassigned) [Compound 14A]	420 nM	9100 nM	–	–
COc1cc(NC(C(=O)N2CCc3ccc(OC(F)(F)F)cc32)c2ccc(Cl)cc2OCCCC(=O)O)cc(-n2cncn2)c1 (racemic) [Compound 13, 4-(5-chloro-2-(1-((3-methoxy-5-(1H-1,2,4-triazol-1-yl)phenyl)amino)-2-oxo-2-(6-(trifluoromethoxy)indolin-1-yl)ethyl)phenoxy)butanoic acid]	–	11000 nM	0.23 nM	–
COc1cc(NC(C(=O)N2CCc3cc(OC)c(C(F)(F)F)cc32)c2ccc(F)cc2OCCO)cc(-n2cncn2)c1 (racemic) [Compound 2, 2-(4-fluoro-2-(2-hydroxyethoxy)phenyl)-2-((3-methoxy-5-(1H-1,2,4-triazol-1-yl)phenyl)amino)-1-(5-methoxy-6-(trifluoromethyl)indolin-1-yl)ethanone]	–	13000 nM	2.8 nM	–
COc1cc(NC(C(=O)N2CCc3cc(F)c(OC(F)(F)F)cc32)c2ccc(Cl)cc2OCCO)cc(-n2cncn2)c1 (racemic) [Compound 9, 2-(4-chloro-2-(2-hydroxyethoxy)phenyl)-1-(5-fluoro-6-(trifluoromethoxy)indolin-1-yl)-2-((3-methoxy-5-(1H-1,2,4-triazol-1-yl)phenyl)amino)ethanone]	–	3900 nM	1.6 nM	–
COc1cc(NC(C(=O)N2CCc3cc(F)c(C(F)(F)F)cc32)c2ccc(Cl)cc2OCCO)cc(-n2cncn2)c1 (racemic) [Compound 7, 2-(4-chloro-2-(2-hydroxyethoxy)phenyl)-1-(5-fluoro-6-(trifluoromethyl)indolin-1-yl)-2-((3-methoxy-5-(1H-1,2,4-triazol-1-yl)phenyl)amino)ethanone]	–	10000 nM	3 nM	–
COc1cc(NC(C(=O)N2CCc3ccc(C(F)(F)F)cc32)c2ccc(Cl)cc2OCCCC(=O)O)cc(-n2cncn2)c1 (single isomer, unassigned) [Compound 11A]	45 nM	11000 nM	–	–
COc1cc(NC(C(=O)N2CCc3ccc(OC(F)(F)F)cc32)c2ccc(F)cc2OCCO)cc(-n2cncn2)c1 (single isomer, unassigned) [Compound 3A]	520 nM	11000 nM	–	–
COc1cc(NC(C(=O)N2CCc3cc(F)c(OC(F)(F)F)cc32)c2ccc(Cl)cc2OCCCC(=O)O)cc(-n2cncn2)c1 (single isomer, unassigned) [Compound 15A]	5.3 nM	10000 nM	–	–
COc1cc(NC(C(=O)N2CCc3c(C)cc(OC(F)(F)F)cc32)c2ccc(Cl)cc2OCCO)cc(-n2cncn2)c1 (racemic) [Compound 10, 2-(4-chloro-2-(2-hydroxyethoxy)phenyl)-2-((3-methoxy-5-(1H-1,2,4-triazol-1-yl)phenyl)amino)-1-(4-methyl-6-(trifluoromethoxy)indolin-1-yl)ethanone]	–	10000 nM	0.35 nM	–
COc1cc(NC(C(=O)N2CCc3c(C)cc(OC(F)(F)F)cc32)c2ccc(Cl)cc2OCCO)cc(-n2cncn2)c1 (single isomer, unassigned) [Compound 10A]	63 nM	10000 nM	–	–
COc1cc(NC(C(=O)N2CCc3ccc(C(F)(F)F)cc32)c2ccc(F)cc2OCCO)cc(-n2cncn2)c1 (single isomer, unassigned) [Compound 1A]	1000 nM	7700 nM	–	–
COc1cc(NC(C(=O)N2CCc3cc(OC)c(C(F)(F)F)cc32)c2ccc(Cl)cc2OCCO)cc(-n2cncn2)c1 (racemic) [Compound 5, 2-(4-chloro-2-(2-hydroxyethoxy)phenyl)-2-((3-methoxy-5-(1H-1,2,4-triazol-1-yl)phenyl)amino)-1-(5-methoxy-6-(trifluoromethyl)indolin-1-yl)ethanone]	–	11000 nM	0.82 nM	–
COc1cc(NC(C(=O)N2CCc3cc(OC)c(C(F)(F)F)cc32)c2ccc(Cl)cc2OCCO)cc(-n2cncn2)c1 (single isomer, unassigned) [Compound 5A]	42 nM	11000 nM	–	–
COc1cc(NC(C(=O)N2CCc3ccc(OC(F)(F)F)cc32)c2ccc(Cl)cc2OCCC(C)(C)C(=O)O)cc(-n2cncn2)c1 (racemic) [Compound 14, 4-(5-chloro-2-(1-((3-methoxy-5-(1H-1,2,4-triazol-1-yl)phenyl)amino)-2-oxo-2-(6-(trifluoromethoxy)indolin-1-yl)ethyl)phenoxy)-2,2-dimethylbutanoic acid]	–	10000 nM	0.41 nM	–
COc1cc(NC(C(=O)N2CCc3cc(F)c(OC(F)(F)F)cc32)c2ccc(Cl)cc2OCCCC(=O)O)cc(-n2cncn2)c1 (racemic) [Compound 15, 4-(5-chloro-2-(2-(5-fluoro-6-(trifluoromethoxy)indolin-1-yl)-1-((3-methoxy-5-(1H-1,2,4-triazol-1-yl)phenyl)amino)-2-oxoethyl)phenoxy)butanoic acid]	–	11000 nM	0.22 nM	–
COc1cc(NC(C(=O)N2CCc3ccc(OC(F)(F)F)cc32)c2ccc(F)cc2OCCO)cc(-n2cncn2)c1 (racemic) [Compound 3, 2-(4-fluoro-2-(2-hydroxyethoxy)phenyl)-2-((3-methoxy-5-(1H-1,2,4-triazol-1-yl)phenyl)amino)-1-(6-(trifluoromethoxy)indolin-1-yl)ethanone]	–	8500 nM	1.9 nM	–
COc1cc(NC(C(=O)N2CCc3cc(OC)c(OC(F)(F)F)cc32)c2ccc(Cl)cc2OCCO)cc(-n2cncn2)c1 (racemic) [Compound 8, 2-(4-chloro-2-(2-hydroxyethoxy)phenyl)-2-((3-methoxy-5-(1H-1,2,4-triazol-1-yl)phenyl)amino)-1-(5-methoxy-6-(trifluoromethoxy)indolin-1-yl)ethanone]	–	9500 nM	2.1 nM	–
COc1cc(NC(C(=O)N2CCc3ccc(C(F)(F)F)cc32)c2ccc(Cl)cc2OCCCC(=O)O)cc(-n2cncn2)c1 (racemic) [Compound 11, 4-(5-chloro-2-(1-((3-methoxy-5-(1H-1,2,4-triazol-1-yl)phenyl)amino)-2-oxo-2-(6-(trifluoromethyl)indolin-1-yl)ethyl)phenoxy)butanoic acid]	–	15000 nM	0.31 nM	–

Reference: patent publication US11083707B2, “Substituted indoline derivatives as dengue viral replication inhibitors” (JANSSEN PHARMACEUTICALS, INC., priority 2017, dated 2021)
